# In patent publication US6090605A, “Purified porcine kidney L-fucose kinase” (The Board of Trustees of the University of Arkansas, priority 1998, dated 2000):
# Assays:
# [1] = target: T1, pig kidney fucokinase (Sus scrofa, UniProt I3LTC2); experiment: Inhibition of fucokinase by GDP-L-fucose and other GDP-linked sugars; format: biochemical
# T1 construct: L-Fucokinase was purified to apparent homogeneity from the cytosolic fraction of pig kidney; from tissue; host or cells: pig kidney, cytosolic fraction
# T1 sequence (I3LTC2 1-1083): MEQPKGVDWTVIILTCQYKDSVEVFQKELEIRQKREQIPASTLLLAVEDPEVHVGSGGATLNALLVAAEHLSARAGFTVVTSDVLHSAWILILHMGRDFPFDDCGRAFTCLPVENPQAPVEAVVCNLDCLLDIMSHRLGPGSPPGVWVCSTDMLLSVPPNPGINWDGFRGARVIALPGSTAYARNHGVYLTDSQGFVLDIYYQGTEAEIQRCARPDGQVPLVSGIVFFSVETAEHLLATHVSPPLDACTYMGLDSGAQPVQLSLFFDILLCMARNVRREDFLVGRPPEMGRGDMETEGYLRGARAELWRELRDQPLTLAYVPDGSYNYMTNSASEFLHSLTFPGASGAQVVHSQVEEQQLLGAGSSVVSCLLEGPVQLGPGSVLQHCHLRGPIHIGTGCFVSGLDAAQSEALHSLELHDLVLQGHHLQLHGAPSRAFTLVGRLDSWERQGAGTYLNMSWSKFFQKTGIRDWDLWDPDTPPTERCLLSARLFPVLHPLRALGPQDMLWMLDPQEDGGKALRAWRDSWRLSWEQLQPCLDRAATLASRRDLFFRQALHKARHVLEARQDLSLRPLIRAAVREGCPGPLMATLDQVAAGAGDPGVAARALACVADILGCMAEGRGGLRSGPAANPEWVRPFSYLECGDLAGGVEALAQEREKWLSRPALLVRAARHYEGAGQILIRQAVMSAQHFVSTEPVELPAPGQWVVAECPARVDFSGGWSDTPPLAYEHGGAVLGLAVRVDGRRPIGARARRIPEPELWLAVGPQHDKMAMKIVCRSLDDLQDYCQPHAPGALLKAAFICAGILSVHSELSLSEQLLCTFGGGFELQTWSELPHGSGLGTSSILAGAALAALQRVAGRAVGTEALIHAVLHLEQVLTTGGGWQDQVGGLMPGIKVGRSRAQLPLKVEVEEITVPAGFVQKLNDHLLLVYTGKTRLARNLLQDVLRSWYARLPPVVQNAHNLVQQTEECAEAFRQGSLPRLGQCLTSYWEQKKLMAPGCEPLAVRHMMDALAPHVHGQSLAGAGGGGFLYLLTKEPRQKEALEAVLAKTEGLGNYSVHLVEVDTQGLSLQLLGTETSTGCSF
# Experimental: (§1) Fucokinase activity was assayed by measuring the production of L-fucose-1-Pfrom [^3 H]L-fucose and ATP. The incubation mixtures contained the following components (final concentrations) in a total volume of 150 μl: L-fucose, 0.1 mM; ATP, 5 mM; MgSO4, 5 mM; Tris-HCl buffer, pH 8.0, 65 mM; and various amounts of enzyme at the different stages of purification. Incubations were at 37° C. for 10 minutes, and reactions were terminated by heating the reaction mixtures in a boiling water bath for 1 minute. The incubation mixtures were then applied to a column of DE-52 contained in a Pasteur pipette, and the column was washed with at least 5 column volumes of 10 mM (NH4)HCO3 to remove the unbound material. The [^3 H]fucose-1-P was then eluted with 500 mM (NH4)HCO3. Aliquots of the eluates were assayed for their radioactive content by subjecting a portion to scintillation counting.
# It can be seen that the amount of inhibition of fucokinase increased with increasing amounts of GDP-L-fucose, and the Ki for GDP-L-fucose was estimated to be about 10 μM.
# [2] = target: T1, pig kidney fucokinase; experiment: Inhibition of [3H]L-fucose phosphorylation by unlabeled monosaccharides; format: biochemical; details: unlabeled monosaccharide 500 μM; radiolabeled L-fucose substrate 100 μM
# Experimental: as §1
# Although it was possible to get a reasonable assessment of the sugar specificity of the kinase from the above experiment, it was not possible to test sugars such as D-fucose, since these sugars are not available in radioactive form. Thus, these unlabeled sugars were tested for their ability to inhibit the phosphorylation of [^3 H]L-fucose. The rationale for this experiment is that a sugar that inhibits the phosphorylation of L-fucose would probably compete with L-fucose for the phosphorylation (i.e., active) site.
# [3] = tested on: pig liver L-fucokinase preparation; details: cited from earlier work
# [4] = target: T1, pig kidney fucokinase; experiment: Sugar specificity of purified fucokinase (radiolabeled sugars as phosphate acceptors); format: biochemical; details: for activity as phosphate acceptor (in words): purified enzyme; for Specific Activity: radiolabeled sugar 100 μM as phosphate acceptor
# Experimental: as §1
# The specificity of the kinase for various sugar substrates was examined in two different ways. In the first set of experiments, various radiolabeled sugars were tested as phosphate acceptors for the purified enzyme using the ion-exchange chromatography method for assay of activity. […] D-Arabinose, which has the same configuration at carbons 1 through 4 as L-fucose, was also a reasonable substrate for phosphorylation, and was about 10% as effective as L-fucose. On the other hand, all of the other sugars were ineffective as phosphate acceptors.
# [5] = tested on: pig liver L-fucokinase preparation; details: cited from earlier work; remark: listed apart in the source
# [6] = target: T2, pig kidney fucokinase (110 kDa band) (Sus scrofa, UniProt I3LTC2); experiment: Photoaffinity labeling of the fucokinase with 8-azido-ATP[32P]; format: binding; details: unlabeled ATP 0.3-1.2 mM; GTP, ITP 0.6 and 1.2 mM
# T2 construct: L-Fucokinase was purified to apparent homogeneity from the cytosolic fraction of pig kidney; from tissue; host or cells: pig kidney, cytosolic fraction
# T2 sequence (I3LTC2 1-1083): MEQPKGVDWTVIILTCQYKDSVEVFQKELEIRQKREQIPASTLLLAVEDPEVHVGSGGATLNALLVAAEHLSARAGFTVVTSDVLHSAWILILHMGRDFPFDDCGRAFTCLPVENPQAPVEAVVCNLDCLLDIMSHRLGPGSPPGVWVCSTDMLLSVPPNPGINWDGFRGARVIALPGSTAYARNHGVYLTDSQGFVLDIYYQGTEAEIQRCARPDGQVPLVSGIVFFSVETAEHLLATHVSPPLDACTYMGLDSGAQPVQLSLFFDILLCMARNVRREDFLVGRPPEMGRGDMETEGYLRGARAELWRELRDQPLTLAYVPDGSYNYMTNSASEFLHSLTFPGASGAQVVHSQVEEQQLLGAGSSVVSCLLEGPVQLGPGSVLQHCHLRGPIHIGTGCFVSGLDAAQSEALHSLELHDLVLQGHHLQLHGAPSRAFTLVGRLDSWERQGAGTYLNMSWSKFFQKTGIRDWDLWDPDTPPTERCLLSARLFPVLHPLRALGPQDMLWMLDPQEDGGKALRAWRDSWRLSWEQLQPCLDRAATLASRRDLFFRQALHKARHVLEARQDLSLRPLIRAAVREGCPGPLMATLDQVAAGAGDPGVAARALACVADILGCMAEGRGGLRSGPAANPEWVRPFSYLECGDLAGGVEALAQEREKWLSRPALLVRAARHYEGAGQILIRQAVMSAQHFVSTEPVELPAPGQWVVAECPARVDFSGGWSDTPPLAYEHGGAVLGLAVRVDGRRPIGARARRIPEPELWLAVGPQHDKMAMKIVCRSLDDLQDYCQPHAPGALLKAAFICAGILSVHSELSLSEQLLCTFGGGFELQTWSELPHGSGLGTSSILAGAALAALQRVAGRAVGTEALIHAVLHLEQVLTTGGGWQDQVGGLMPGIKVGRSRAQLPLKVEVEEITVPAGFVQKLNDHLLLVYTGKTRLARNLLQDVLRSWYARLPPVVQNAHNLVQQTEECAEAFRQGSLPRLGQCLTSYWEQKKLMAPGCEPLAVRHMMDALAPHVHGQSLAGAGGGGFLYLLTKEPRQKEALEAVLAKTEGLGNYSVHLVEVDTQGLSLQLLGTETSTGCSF
# Experimental: The purified enzyme was incubated for 20 seconds with azido-ATP[^32 P], and the mixture was exposed to UV for 90 seconds. The reaction was stopped by adding loading buffer and the mixture subjected to SDS-PAGE. Radioactive bands were detected by exposure to film. Lanes are as follows: Lane 1, Probe+enzyme, but no UV; Lane 2, Probe+enzyme+UV; Lanes 3 through 6. Probe+enzyme+0.3, 0.6, 0.9, and 1.2 mM ATP+exposure to UV light; lanes 7 and 8, 0.6 and 1.2 mM GTP+probe+exposure to UV light: lanes 9 and 10, 0.6 and 1.2 mM ITP+probe+exposure to UV light. In lanes 11 and 12, the enzyme was incubated with N3 -GTP[^32 P ] and then exposed to UV light (lane 12) or not exposed to UV light (lane 11). Lane 13 is a control of enzyme+N3 -ATP[^32 P]+exposure to UV light.
# Enzyme, at various stages of purity, was mixed with 8-azido-ATP[^32 P] in buffer, and allowed to incubate for 20 sec. in an ice bath. 8-Azido-ATP[^32 P] was prepared as previously described (16). After incubation, the reaction mixture was exposed to short wave UV light for about 90 sec. to activate the azido group, and the protein was subjected to SDS gel electrophoresis to separate the proteins. The gels were dried and exposed to film to locate the radioactive bands and were also stained with Coomassie blue to locate the various proteins. The specificity of the labeling was determined by examining the effect of various concentrations of unlabeled ATP or other nucleotides on the labeling of the protein by N3 -ATP[^32 P]. Various controls were also run, such as one in which exposure to UV was omitted.
# Lanes 11-13 of FIG. 3 show the results of another experiment designed to determine whether 8-N3 -GTP[^32 P] could label the fucokinase. […] These experiments indicate that the fucokinase is quite specific for ATP.
# [7] = target: T1, pig kidney fucokinase; experiment: Specificity of fucokinase for phosphate donor (nucleotides); format: biochemical; details: nucleotide added at 1 mM as phosphate donor
# Experimental: as §1
# The specificity of the nucleoside triphosphate was also examined by testing the ability of a variety of nucleotides to serve as phosphate donors in the phosphorylation of [^3 H]L-fucose. […] In addition, no activity is observed with any nucleoside diphosphates or monophosphates.
structure (smiles),measurement,setting,value
C[C@@H]1O[C@H](OP(=O)(O)OP(=O)(O)OC[C@H]2O[C@@H](n3cnc4c(=O)[nH]c(N)nc43)[C@H](O)[C@@H]2O)[C@@H](O)[C@H](O)[C@@H]1O [GDP-L-fucose],Ki,"[1]; 100 μM [3H]fucose, 5 mM ATP, 5 mM Mg++, pH 8.0",~10 µM
O=C[C@@H](O)[C@@H](O)[C@H](O)[C@H](O)CO [D-mannose],Relative Activity (%),[2],100%
same,rate of phosphorylation compared with L-fucose (in words),[3],about the same rate or better
same,activity as phosphate acceptor (in words),[4],does not phosphorylate
same,Specific Activity,[4],0 nmole/mg protein
O=C[C@H](O)[C@@H](O)[C@H](O)[C@H](O)CO [D-glucose],Relative Activity (%),[2],100%
same,rate of phosphorylation compared with L-fucose (in words),[3],about the same rate or better
same,phosphorylation of sugar by the about 70-fold purified preparation (in words),[5],considerable activity for phosphorylating
same,activity as phosphate acceptor (in words),[4],does not phosphorylate
same,Specific Activity,[4],0.3 nmole/mg protein
Nc1nc2c(ncn2[C@@H]2O[C@H](COP(=O)(O)OP(=O)(O)O[C@H]3O[C@H](CO)[C@@H](O)[C@H](O)[C@@H]3O)[C@@H](O)[C@H]2O)c(=O)[nH]1 [GDP-D-mannose],inhibition of the fucokinase (in words),[1],did not inhibit
Nc1nc2c(ncn2[C@@H]2O[C@H](COP(=O)(O)OP(=O)(O)OP(=O)(O)O)[C@@H](O)[C@H]2O)c(=O)[nH]1 [GTP],inhibition of labeling of the 110 kDa band by N3-ATP[32P] (in words),[6],considerably less effective in inhibiting
same,use as phosphate donor (in words),[5],could also use
same,Specific Activity,[7],0.09 nmoles/mg protein/10 min
